Test results taken from ChEMBL document CHEMBL2163308, “Small molecule activators of proteasome-related HslV peptidase” (Bioorg Med Chem Lett, 2012).

Columns and labels:
Escherichia coli = assay: Activation of recombinant Escherichia coli HslV expressed in Escherichia coli BL21( DE3) cells using Z-GGL-AMC as substrate by fluorescence analysis
[1] = Activation of recombinant Escherichia coli HslU C-tail expressed in Escherichia coli BL21( DE3) cells using Z-GGL-AMC as substrate by fluorescence analysis

SMILES | ED50 (Escherichia coli) [nM] | ED50 [1] [nM]
O=C(Cn1c(-c2ccccn2)nc2ccccc21)c1ccc([N+](=O)[O-])cc1 | 600 | 2600
O=C(Cn1c(-c2ccccn2)nc2ccccc21)c1ccc(O)c(O)c1 | 600 | 2600
O=C(N/N=C/c1cc(=O)c2ccccc2o1)c1ccccc1 | 1300 | 2600
O=c1c2ccccc2nc(-c2ccc([N+](=O)[O-])cc2)n1/N=C/c1c(O)ccc2ccccc12 | 900 | 2600
